# Reference: patent US20240360178A1, “MACROCYCLIC IMMUNOMODULATORS” (Bristol-Myers Squibb Company, priority 2021, published 2024)
# Positions of bridges follow the written chain, without caps; N, C: chain ends. Non-standard residues stand in square brackets, D forms with d. Residues, ends and D or L forms follow the SMILES beside them. ξ: configuration not given here. *: point of attachment. Bip = N[C@@H](Cc1ccc(-c2ccccc2)cc1)C(=O)O; Phe(4-NH2) = Nc1ccc(C[C@H](N)C(=O)O)cc1; Phe(3-Me) = Cc1cccc(C[C@H](N)C(=O)O)c1; NMeF = CN[C@@H](Cc1ccccc1)C(=O)O; 4Pal = N[C@@H](Cc1ccncc1)C(=O)O; dTic = O=C(O)[C@H]1Cc2ccccc2CN1; Cha = N[C@@H](CC1CCCCC1)C(=O)O; Carboxymethyl = O=C(O)C*; NMeA = CN[C@@H](C)C(=O)O; Orn = NCCC[C@H](N)C(=O)O; Dab = NCC[C@H](N)C(=O)O; Dap = NC[C@H](N)C(=O)O; NBuGly = CCCCNCC(=O)O; ξV = CC(C)C(N)C(=O)O; Sar = CNCC(=O)O
# Molecular target: T1, human PD-1 (Jurkat-PD-1 cells) / PE-labeled human PD-L1-Ig (Homo sapiens, UniProt Q15116)
# T1 construct: expressed in transfected cells; host or cells: Jurkat cell line over-expressing human PD-1
# T1 sequence (Q15116 25-288): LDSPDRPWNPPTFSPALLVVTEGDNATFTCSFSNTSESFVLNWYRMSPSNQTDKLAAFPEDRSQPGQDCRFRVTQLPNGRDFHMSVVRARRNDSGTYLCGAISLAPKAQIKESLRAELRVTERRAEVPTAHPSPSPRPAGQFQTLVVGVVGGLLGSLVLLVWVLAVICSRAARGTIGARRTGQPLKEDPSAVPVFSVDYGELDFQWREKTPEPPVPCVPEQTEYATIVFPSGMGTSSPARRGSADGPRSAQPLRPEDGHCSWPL
# Assay: Jurkat-PD-1 Cell Binding High-Content Screening Assay (CBA); Jurkat hPD1-PDL1 assay
# Conditions: Jurkat cell line over-expressing human PD-1; PE-labeled PD-L1-Ig 20 nM final; compound incubated 2 hours at 37° C.; read-out: Jurkat HPD1-PDL1 IC50
# Summary of the method: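 Compound was added to Jurkat-PD-1 cells in DMEM plus 10% fetal calf serum and incubated 2 hours at 37° C. Binding of phycoerythrin-conjugated PD-L1-Ig (20 nM final) to the cells was imaged.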
row,IC50 [nM],Compound
1,90,CC(C)C[C@@H]1NC(=O)[C@H](Cc2c[nH]c3ccccc23)NC(=O)[C@H](CC(=O)O)NC(=O)[C@H](Cc2ccc(O)cc2)NC(=O)[C@H](Cc2ccccc2)NC(=O)CSC[C@@H](C(=O)N[C@@H](C)C(N)=O)NC(=O)[C@H](CO)NC(=O)[C@H](C(C)C)NC(=O)[C@H](CC(C)C)NC(=O)[C@H](CC(N)=O)NC(=O)[C@H]2Cc3ccccc3CN2C(=O)[C@H](C)N(C)C(=O)[C@H](C(C)C)NC(=O)[C@H](Cc2ccc(-c3ccccc3)cc2)NC1=O [Example 1049] ({CH2CO}-FYDWL[Bip]V[NMeA][dTic]NLVSCA-NH2; thioether N-14)
2,90,CC(C)C[C@@H]1NC(=O)[C@H](Cc2c[nH]c3ccccc23)NC(=O)[C@H](CC(=O)O)NC(=O)[C@H](Cc2ccc(O)cc2)NC(=O)[C@H](CN)NC(=O)CSC[C@@H](C(=O)N[C@@H](C)C(N)=O)NC(=O)[C@H](CO)NC(=O)[C@H](C(C)C)NC(=O)[C@H](CC(C)C)NC(=O)[C@H](CC(N)=O)NC(=O)[C@H]2CCCN2C(=O)[C@H](C)N(C)C(=O)[C@H](C(C)C)NC(=O)[C@H](Cc2ccc(-c3ccccc3)cc2)NC1=O [Example 1394] ({CH2CO}-[Dap]YDWL[Bip]V[NMeA][dP]NLVSCA-NH2; thioether N-14)
3,210,CC(C)C[C@@H]1NC(=O)[C@H](Cc2c[nH]c3ccccc23)NC(=O)[C@H](CC(=O)O)NC(=O)[C@H](Cc2ccc(N)cc2)NC(=O)[C@H](Cc2ccccc2)NC(=O)CSC[C@@H](C(=O)N[C@@H](C)C(N)=O)NC(=O)[C@H](CO)NC(=O)[C@H](C(C)C)NC(=O)[C@H](CC(C)C)NC(=O)[C@H](CC(N)=O)NC(=O)CN(C)C(=O)[C@H](C)N(C)C(=O)[C@H](C(C)C)NC(=O)[C@H](Cc2ccc(-c3ccccc3)cc2)NC1=O [Example 1076] ({CH2CO}-F[Phe(4-NH2)]DWL[Bip]V[NMeA][Sar]NLVSCA-NH2; thioether N-14)
4,60,CC(C)C[C@@H]1NC(=O)[C@H](Cc2c[nH]c3ccccc23)NC(=O)[C@H](CC(=O)O)NC(=O)[C@H](Cc2ccc(O)cc2)NC(=O)[C@H](Cc2ccccc2)NC(=O)CSC[C@@H](C(=O)N[C@@H](C)C(N)=O)NC(=O)[C@H](CO)NC(=O)[C@H](C(C)C)NC(=O)[C@H](CC(C)C)NC(=O)[C@H](CC(N)=O)NC(=O)[C@H]2CCCN2C(=O)[C@H](C)N(C)C(=O)[C@H](C(C)C)NC(=O)[C@H](Cc2ccc(-c3ccccc3)cc2)NC1=O [Example 1034] ({CH2CO}-FYDWL[Bip]V[NMeA][dP]NLVSCA-NH2; thioether N-14)
5,60,CC(C)C[C@@H]1NC(=O)[C@H](CCCNC(=N)N)NC(=O)CN(C)C(=O)[C@H](C)N(C)C(=O)[C@H](C(C)C)NC(=O)[C@H](Cc2ccc(-c3ccccc3)cc2)NC(=O)[C@H](C(C)C)NC(=O)[C@H](Cc2c[nH]c3ccccc23)NC(=O)[C@H](CC(=O)O)NC(=O)[C@H](Cc2ccc(O)cc2)NC(=O)[C@H](Cc2ccccc2)NC(=O)CSC[C@@H](C(=O)NCC(N)=O)NC(=O)[C@H](CO)NC(=O)[C@H](C(C)C)NC1=O [Example 1230] ({CH2CO}-FYDWV[Bip]V[NMeA][Sar]RLVSCG-NH2; thioether N-14)

# Further lines, the compound ahead of its results:
row,Compound,IC50 [nM]
1,CC(C)C[C@@H]1NC(=O)[C@H](CCN)NC(=O)[C@H](Cc2ccccc2)N(C)C(=O)[C@H](C)N(C)C(=O)[C@H](CCC(=O)O)NC(=O)[C@H](Cc2ccc(-c3ccccc3)cc2)NC(=O)[C@H](C(C)C)NC(=O)[C@H](Cc2c[nH]c3ccccc23)NC(=O)[C@H](CC(=O)O)NC(=O)[C@H](Cc2ccc(O)cc2)NC(=O)[C@H](Cc2ccccc2)NC(=O)CSC[C@@H](C(=O)N[C@@H](CCC(=O)O)C(N)=O)NC(=O)[C@H]([C@@H](C)O)NC(=O)[C@H](C(C)C)NC1=O [Example 1343] ({CH2CO}-FYDWV[Bip]E[NMeA][NMeF][Dab]LVTCE-NH2; thioether N-14),370
2,CC(C)C[C@@H]1NC(=O)[C@H](CCN)NC(=O)[C@H](Cc2ccccc2)N(C)C(=O)[C@H](C)N(C)C(=O)[C@H](CCCNC(=N)N)NC(=O)[C@H](Cc2ccc(-c3ccccc3)cc2)NC(=O)[C@H](C(C)C)NC(=O)[C@H](Cc2c[nH]c3ccccc23)NC(=O)[C@H](CC(=O)O)NC(=O)[C@H](Cc2ccc(O)cc2)NC(=O)[C@H](CCC(N)=O)NC(=O)CSC[C@@H](C(=O)N[C@@H](C)C(N)=O)NC(=O)[C@H]([C@@H](C)O)NC(=O)[C@H](C(C)C)NC1=O [Example 1326] ({CH2CO}-QYDWV[Bip]R[NMeA][NMeF][Dab]LVTCA-NH2; thioether N-14),150
3,CC(C)C[C@@H]1NC(=O)[C@H](Cc2c[nH]c3ccccc23)NC(=O)[C@H](CC(=O)O)NC(=O)[C@H](Cc2ccc(O)cc2)NC(=O)[C@H](Cc2ccccc2)NC(=O)CSC[C@@H](C(=O)N[C@@H](C)C(N)=O)NC(=O)[C@H]([C@@H](C)O)NC(=O)[C@H](C(C)C)NC(=O)[C@H](CC(C)C)NC(=O)[C@H](CCN)NC(=O)[C@H]2CCCN2C(=O)[C@H](CN)NC(=O)[C@H](C(C)C)NC(=O)[C@H](Cc2ccc(-c3ccccc3)cc2)NC1=O [Example 1409] ({CH2CO}-FYDWL[Bip]V[Dap][dP][Dab]LVTCA-NH2; thioether N-14),280
4,CC(C)C[C@@H]1NC(=O)[C@H](CCCNC(=N)N)NC(=O)[C@H](Cc2ccccc2)N(C)C(=O)[C@H](C)N(C)C(=O)[C@H](CCCNC(=N)N)NC(=O)[C@H](Cc2ccc(-c3ccccc3)cc2)NC(=O)[C@H](C(C)C)NC(=O)[C@H](Cc2c[nH]c3ccccc23)NC(=O)[C@H](CC(=O)O)NC(=O)[C@H](Cc2ccc(O)cc2)NC(=O)[C@H](Cc2ccccc2)NC(=O)CSC[C@@H](C(=O)N[C@@H](CO)C(N)=O)NC(=O)[C@H](CO)NC(=O)[C@H](C(C)C)NC1=O [Example 1083] ({CH2CO}-FYDWV[Bip]R[NMeA][NMeF]RLVSCS-NH2; thioether N-14),240
5,CCCCN1CC(=O)N[C@@H](CCN)C(=O)N[C@@H](CC2CCCCC2)C(=O)N[C@@H](C(C)C)C(=O)N[C@@H](CO)C(=O)N[C@H](C(=O)N[C@@H](CCN)C(N)=O)CSCC(=O)N[C@@H](Cc2ccncc2)C(=O)N[C@@H](Cc2ccc(OCC(=O)O)cc2)C(=O)N[C@@H](CC(=O)O)C(=O)N[C@@H](Cc2cccc(C)c2)C(=O)N[C@@H](Cc2ccc(OCC(=O)O)cc2)C(=O)N[C@@H](Cc2ccc(-c3ccccc3)cc2)C(=O)N[C@@H](Cc2ccc(OCC(=O)O)cc2)C(=O)N(C)[C@@H](C)C1=O [Example 1187] ({CH2CO}-[4Pal]Y(Carboxymethyl)D[Phe(3-Me)]Y(Carboxymethyl)[Bip]Y(Carboxymethyl)[NMeA][NBuGly][Dab][Cha]VSC[Dab]-NH2; thioether N-14),290
6,CC(C)C[C@@H]1NC(=O)[C@H](CCCNC(=N)N)NC(=O)[C@H](Cc2ccccc2)N(C)C(=O)[C@H](C)N(C)C(=O)[C@H](CCCNC(=N)N)NC(=O)[C@H](Cc2ccc(-c3ccccc3)cc2)NC(=O)[C@H](C(C)C)NC(=O)[C@H](Cc2c[nH]c3ccccc23)NC(=O)[C@H](CC(=O)O)NC(=O)[C@H](Cc2ccc(O)cc2)NC(=O)[C@H](Cc2ccccc2)NC(=O)CSC[C@@H](C(=O)N[C@@H](C)C(N)=O)NC(=O)[C@H](CO)NC(=O)[C@H](C(C)C)NC1=O [Example 1074] ({CH2CO}-FYDWV[Bip]R[NMeA][NMeF]RLVSCA-NH2; thioether N-14),190
7,Cc1cccc(C[C@@H]2NC(=O)[C@H](CC(=O)O)NC(=O)[C@H](Cc3ccc(O)cc3)NC(=O)[C@H](CC(N)=O)NC(=O)CSC[C@@H](C(=O)N[C@@H](C)C(N)=O)NC(=O)[C@H]([C@@H](C)O)NC(=O)[C@H](C(C)C)NC(=O)[C@H](CC3CCCCC3)NC(=O)[C@H](CCN)NC(=O)[C@H](Cc3ccccc3)N(C)C(=O)[C@H](CCCN)NC(=O)[C@H](CCC(=O)O)NC(=O)[C@H](Cc3ccc(-c4ccccc4)cc3)NC(=O)C(C(C)C)NC2=O)c1 (stereo partly drawn) [Example 1447] ({CH2CO}-NYD[Phe(3-Me)][ξV][Bip]E[Orn][NMeF][Dab][Cha]VTCA-NH2; thioether N-14),30
8,CC(C)C[C@@H]1NC(=O)[C@H](Cc2c[nH]c3ccccc23)NC(=O)[C@H](CC(=O)O)NC(=O)[C@H](Cc2ccc(O)cc2)NC(=O)[C@H](Cc2ccccc2)NC(=O)CSC[C@@H](C(=O)N[C@@H](C)C(N)=O)NC(=O)[C@H](CO)NC(=O)[C@H](C(C)C)NC(=O)[C@H](CC(C)C)NC(=O)[C@H](CCCNC(=N)N)NC(=O)[C@H](Cc2ccccc2)N(C)C(=O)[C@H](C)N(C)C(=O)[C@H](CCCNC(=N)N)NC(=O)[C@H](Cc2ccc(-c3ccccc3)cc2)NC1=O [Example 1078] ({CH2CO}-FYDWL[Bip]R[NMeA][NMeF]RLVSCA-NH2; thioether N-14),220
9,CC(C)C[C@@H]1NC(=O)[C@H](CCN)NC(=O)[C@H](Cc2ccccc2)N(C)C(=O)[C@H](C)N(C)C(=O)[C@H](CCCNC(=N)N)NC(=O)[C@H](Cc2ccc(-c3ccccc3)cc2)NC(=O)[C@H](C(C)C)NC(=O)[C@H](Cc2c[nH]c3ccccc23)NC(=O)[C@H](CC(=O)O)NC(=O)[C@H](Cc2ccc(O)cc2)NC(=O)[C@H](CC(N)=O)NC(=O)CSC[C@@H](C(=O)N[C@@H](C)C(N)=O)NC(=O)[C@H](CO)NC(=O)[C@H](C(C)C)NC1=O [Example 1303] ({CH2CO}-NYDWV[Bip]R[NMeA][NMeF][Dab]LVSCA-NH2; thioether N-14),70
10,CC(C)C[C@@H]1NC(=O)[C@H](Cc2c[nH]c3ccccc23)NC(=O)[C@H](CC(=O)O)NC(=O)[C@H](Cc2ccc(O)cc2)NC(=O)[C@H](Cc2ccccc2)NC(=O)CSC[C@@H](C(=O)N[C@@H](C)C(N)=O)NC(=O)[C@H](CO)NC(=O)[C@H](C(C)C)NC(=O)[C@H](CC(C)C)NC(=O)[C@H](CC(N)=O)NC(=O)[C@H]2CCCN2C(=O)[C@H](C)N(C)C(=O)[C@H](CCC(=O)O)NC(=O)[C@H](Cc2ccc(-c3ccccc3)cc2)NC1=O [Example 1039] ({CH2CO}-FYDWL[Bip]E[NMeA][dP]NLVSCA-NH2; thioether N-14),70
